Measurements from article PMC11645656, “MRGPRX4 mediates phospho-drug associated pruritus in a humanized mouse model” (Science translational medicine, 2024).
Where “and” joins values, the source holds several entries; their conditions need not be identical. Equal entries are not always repeated. Structures can show the parent of a compound that is named as a salt.

Columns and labels:
[1] = test system: NP2-X4+ mice (MRGPRX4 in Mrgpra3+ NP2 sensory neurons); experiment: Itch behavioral study (scratching bouts after subcutaneous nape injection) in NP2-X4+ mice; format: in vivo, mouse
MRGPRX4 (S83) = target: T1, MRGPRX4 (S83) (Homo sapiens, UniProt Q96LA9, L83S); experiment: EC50 determination, intracellular calcium mobilization in MRGPRX4 stably expressed HEK293 cells (FLIPR Calcium 5, Flexstation-3); format: cell-based; conditions: propofol series, individual replicate values
T1 construct: expressed in transfected cells
In short: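 EC50 came from a four-parameter logistic fit to averaged triplicate responses, each response being maximum post-stimulation signal less baseline. Intracellular calcium was monitored with Calcium 5 dye in HBSS with 20 mM HEPES, pH 7.4, after 1 h dye loading at 37 °C, using stably transfected HEK293 cells and parental controls.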

NP2-WT mice = experiment: Itch behavioral study (scratching bouts after subcutaneous nape injection) in littermate control NP2-WT mice; format: in vivo; conditions: 30 min after injection of 50 μl 10 mM into the nape, each cell one mouse
Description: Fig. 2. Phosphate monoester prodrugs induce itch in NP2-MRGPRX4+ mice through activating NP2 primary sensory neurons. (A) Mating strategy to generate NP2-X4+ mice. (B) In situ hybridization showing MRGPRX4 transcripts (magenta) in NP2-X4+ DRG as indicated by arrowheads (left) but not in littermate control NP2-WT (right). NP2 subpopulation accounts for 5% of total DRG neurons. DAPI, blue. Scale bar, 50 μm. […] . Data are expressed as mean ± SEM. *p< 0.05, **p< 0.01 and ***p< 0.001 by two-tailed unpaired Student’s t-test. ns = no statistical significance observed. (D and E) Traces of average (top, depicted as mean ± 95% confidence interval) and individual (bottom, reflected by the heatmap) calcium activity, measured by fluorescence intensity normalized to the baseline intensity (FT/F0) over time of NP2-X4+ (D) and NP2-WT (E) DRG neurons labelled with GCaMP6s (n = 110–150 neurons pooled from 3–7 independent culture vessels from 2–4 mice in each condition). 10 μM phospho-drugs and 1 mM CQ were added as indicated by the arrowheads. Neurons with FT/F0 > 1.5 after compound application were considered a positive responder. NP2-X4+: NP2-MRGPRX4+; DRG, dorsal root ganglia; CQ: chloroquine.
. All the animals used were heterozygous unless otherwise specified. NP2-X4+ and NP2-WT littermates were generated by crossing Mrgpra3-Cre to Rosa26-lsl-MRGPRX4 as detailed previously ([15]). NP2-X4+ mice were further crossed to homozygous Rosa26-lsl-GCaMP6s to obtain NP2-WT/GCaMP6s and NP2-X4+/GCaMP6s animals. A detailed mating strategy is illustrated in fig. S5. Pirt-Cre-GCaMP6s animals were acquired by crossing Pirt-Cre to homozygous Rosa26-lsl-GCaMP6s. Pirt-Cre animals were generated through homologous recombination as indicated previously ([37]). Rosa26-lsl-GCaMP6s mouse line was provided by Dr. Dwight Bergles’ lab at the Johns Hopkins School of Medicine.

MRGPRX4 S83L (L83) = MRGPRX4 S83L (L83) (Homo sapiens, UniProt Q96LA9); experiment: Calcium mobilization assay (FLIPR), S83L MRGPRX4 transiently expressed in HEK293T cells; format: cell-based; design: expressed in transfected cells; host or cells: HEK293T, transient; conditions: Fig. 4E, unit not in the head, taken from Concentration (M) of the sheet and pEC50 [M] of Fig. 4E, read-out: EC50s (each well represents individual experiment)
Description: (§1) Fig. 4. […] Hydrogen bond is shown as cyan dashed lines. […] Data are from three independent experiments, performed in triplicate. (E) pEC50 plots of various agonists toward S83- and L83-MRGPRX4 through calcium mobilization assay. […] Each data point represents an independent experiment, performed in triplicate. The extra sum-of-square F test was used to examine the difference in EC50 values. One-sided t-test was used for nateglinide. *p< 0.05, **p< 0.01 and ***p< 0.001. ns = no statistical significance. Both (D) and (E) are reported as the mean ± SEM. N.D.= no detectable response ≤ 100 μM.
(§2) HEK293 cells and MRGPRX4 stably expressed HEK293 cells were seeded in 100 μl culture media on 96-well plates at a density of 40,000 cells per well and incubated overnight. The next day, the media were replaced with a dye-loading solution from the FLIPR Calcium 5 assay kit (Molecular Devices), diluted in Hank's Balanced Salt Solution (HBSS) with 20 mM HEPES, pH 7.4. After 1 h of incubation at 37°C, cells were allowed to recover for 10 min in the dark at room temperature prior to performing intracellular calcium mobilization assay in a Flexstation-3 instrument with SoftMax®Pro 7.1 software (Molecular Devices). Serial concentrations of tested drugs were prepared in HBSS/HEPES solution at 3X concentration. […] Compounds were tested in triplicates and the signals were averaged. Responses were determined by subtracting the minimum signal (at the baseline before adding the drug) from the maximum signal (obtained after drug stimulation). Four-parameter logistic (4PL) curve fit was used to plot the dose-response curves. […] Both dose-response curve fitting and EC50s calculation are computed with GraphPad Prism software (version: 6.o or above).
(§3) To generate murine Mrgprs expressing cells, HEK293T cells (ATCC) were seeded on poly-D-lysine coated 96 well plate at 25,000 cells per well one day prior to transfection. HEK293T cells were transiently co-transfected with the mammalian expression plasmids carrying cDNA encoding the murine Mrgpr genes and plasmid inserted with cDNA encoding murine α-subunit of the heterotrimeric G15 protein (Gα15) in triplicates using Lipofectamine LTX reagents (Thermo Scientific). To generate WT, S83L, and alanine mutant MRGPRX4-expressing cells, HEK293T cells were seeded on poly-D-lysine coated 384 well plate at 12,000 cells per well one day prior to transfection. Mammalian expression plasmids pLX304 (vector from Addgene) carrying different MRGPRX4 coding sequences were transiently transfected into HEK293T cells in triplicates with Lipofectamine LTX reagents (Thermo Scientific). Intracellular calcium mobilization assays were performed after one day of transfection. Murine Mrgprs tested include Mrgpra1, Mrgpra2a, Mrgpra2b, Mrgpra3, Mrgpra4, Mrgpra6, Mrgpra9, Mrgpra10, Mrgpra11, Mrgpra12, Mrgpra14, Mrgprb5, Mrgprb6, Mrgprb10, Mrgprb11, and Mrgprc11. WT and mutant MRGPRX4 constructs tested include WT, S83L, R82A, R86A, R95A, W158A, Y250A, and Y254A.

MRGPRX4 WT (S83) = MRGPRX4 WT (S83) (Homo sapiens, UniProt Q96LA9, L83S); experiment: Calcium mobilization assay (FLIPR), WT (S83) MRGPRX4 transiently expressed in HEK293T cells; format: cell-based; design: expressed in transfected cells; host or cells: HEK293T, transient; conditions: for fig. S8 response (normalized), concentration-response: WT, single replicate
Description: as §1, §2, §3

Sequence of MRGPRX4 WT (S83) (Q96LA9 whole entry L83S): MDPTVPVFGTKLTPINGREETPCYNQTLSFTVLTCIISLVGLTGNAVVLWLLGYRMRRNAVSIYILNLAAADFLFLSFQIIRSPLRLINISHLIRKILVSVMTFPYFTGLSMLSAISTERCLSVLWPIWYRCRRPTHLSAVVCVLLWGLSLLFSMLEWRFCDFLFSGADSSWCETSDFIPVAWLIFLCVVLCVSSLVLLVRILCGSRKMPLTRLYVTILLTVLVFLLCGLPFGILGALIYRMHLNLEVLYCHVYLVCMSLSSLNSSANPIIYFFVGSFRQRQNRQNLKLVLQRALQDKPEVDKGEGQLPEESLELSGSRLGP
T1 sequence (Q96LA9 whole entry L83S): as above
Sequence of MRGPRX4 S83L (L83) (Q96LA9 whole entry, stated change not applied): as the sequence (Q96LA9 whole entry L83S) above, with S83L counted along it

With `CC(C)c1cccc(C(C)C)c1OS(=O)(=O)O` [Propofol sulfate] the “Scratching / itch behavior, NP2-X4+ mice vs WT littermates” value ([1]; 50 μl 10 mM nape injection, 30 min) was “no differences in itch behavior were detected”, the “Scratching bouts of individual animals” value ([1]; NP2-X4+, 30 min after injection of 50 μl 10 mM into the nape, each cell one mouse) was 4 and 14 (2×) and 2 and 12 (2×) and 11 and 42 and 6 and the “Fig. 1D dose-response, calcium response at Concentration (M)” value (“Fig. 1D dose-response, calcium response” for short) (MRGPRX4 (S83); 9.76563e-7 M) was -9.765 and -0.941 and -3.534 and -7.698 and -0.440 and -6.103 and -0.412 and -8.690 and -5.139. For the same molecule, the “Fig. 1D dose-response, calcium response” value (MRGPRX4 (S83); 1.95313e-6 M) was 6.750 and 16.267 and 9.058 and 9.006 and 15.719 and 7.351 and 7.826 and 16.017 and 8.232, the “Fig. 1D dose-response, calcium response” value (MRGPRX4 (S83); 3.90625e-6 M) was 4.213 and 7.941 and 5.294 and 9.099 and 3.195 and 5.153 and 8.684 and 2.706 and 6.058 and the “Fig. 1D dose-response, calcium response” value (MRGPRX4 (S83); 7.8125e-6 M) was -1.463 and -6.718 and -3.371 and -0.821 and -4.964 and -5.766 and -0.353 and -2.243 and -8.955. For the same molecule, the “Fig. 1D dose-response, calcium response” value (MRGPRX4 (S83); 1.5625e-5 M) was -10.261 and -6.059 and -2.116 and -7.312 and -10.479 and -0.646 and -4.250 and -7.396 and -6.790, the “Fig. 1D dose-response, calcium response” value (MRGPRX4 (S83); 3.125e-5 M) was -14.578 and -1.085 and -26.180 and -14.763 and -11.464 and -15.617 and -4.490 and -19.590 and -17.764 and the “Fig. 1D dose-response, calcium response” value (MRGPRX4 (S83); 6.25e-5 M) was -6.291 and -44.109 and -11.407 and -17.994 and -28.042 and -15.772 and -23.530 and -32.512 and -5.766. For the same molecule, the “Fig. 1D dose-response, calcium response” value (MRGPRX4 (S83); 0.00025 M) was -9.210 and -19.710 and -18.950 and -19.770 and -23.073 and -5.027 and -19.240 and -15.426 and -13.204, the “Fig. 1D dose-response, calcium response” value (MRGPRX4 (S83); 0.0005 M) was -0.269 and -0.640 and -0.169 and -0.708 and -0.172 and -0.198 and -0.248 and -0.541 and -0.289 and the “Fig. 1D dose-response, calcium response” value (MRGPRX4 (S83); 0.001 M) was 6.469 and 6.229 and 2.832 and 5.169 and 2.033 and 8.329 and 8.781 and 6.580 and 0.170. The “Scratching bouts of individual animals” value (NP2-WT mice) was 15 and 0 and 6 and 5 and 3 and 11.
With `C[C@]12CC3CC(C(=O)N[C@H](Cc4ccccc4)C(=O)O)(C1)C[C@@](C)(C3)C2` [MS47134] the EC50 (MRGPRX4 S83L (L83)) was 2.33e-07 M and 2.26e-07 M and 1.83e-07 M, the EC50 (MRGPRX4 WT (S83); WT (S83), Fig. 4E, unit not in the head, taken from Concentration (M) of the sheet and pEC50 [M] of Fig. 4E, read-out: EC50s (each well represents individual experiment)) was 1e-05 M and 9.11e-06 M and 5.25e-06 M and the “fig. S8 response (normalized), concentration-response” value (“fig. S8 response (normalized)” below) (MRGPRX4 WT (S83); 188.2 pM) was 11.5885 and 10.879 and 5.439 and 5.904 and 6.997 and 13.1195 and 4.054. The “fig. S8 response (normalized)” value (MRGPRX4 WT (S83); 564.5 pM) was 1.419 and 2.1285 and 14.19 and 0.656 and -3.499 and 16.1808 and 2.837 and 3.081, the “fig. S8 response (normalized)” value (MRGPRX4 WT (S83); 1.69351e-9 M) was 13.717 and 21.0485 and 8.041 and 7.872 and 6.341 and 14.6502 and 17.1869 and 20.1054 and the “fig. S8 response (normalized)” value (MRGPRX4 WT (S83); 5.08053e-9 M) was 10.406 and 7.095 and 9.933 and 10.7143 and 1.312 and 11.3703 and 16.214 and 17.6733. For the same molecule, the “fig. S8 response (normalized)” value (MRGPRX4 WT (S83); 1.52416e-8 M) was 16.555 and 11.5885 and 5.439 and 11.8076 and 1.749 and 16.6181 and 8.6745 and 13.0523, the “fig. S8 response (normalized)” value (MRGPRX4 WT (S83); 4.57247e-8 M) was 20.1025 and 15.609 and 18.447 and 12.2449 and 9.84 and 19.0233 and 11.1066 and the “fig. S8 response (normalized)” value (MRGPRX4 WT (S83); 1.37174e-7 M) was 23.177 and 26.015 and 20.1025 and 11.3703 and 12.9009 and 13.1195 and 23.7536. The “fig. S8 response (normalized)” value (MRGPRX4 WT (S83); 4.11523e-7 M) was 18.92 and 25.069 and 17.2645 and 15.0875 and 10.7143 and 17.93 and 19.3758 and 16.214, the “fig. S8 response (normalized)” value (MRGPRX4 WT (S83); 1.23457e-6 M) was 24.3595 and 15.8455 and 8.041 and 11.5889 and 9.621 and 14.4315 and 14.7548 and 20.5918 and the “fig. S8 response (normalized)” value (MRGPRX4 WT (S83); 3.7037e-6 M) was 23.8865 and 16.3185 and 10.879 and 20.3353 and 21.8659 and 19.0233 and 22.7807 and 20.3486. The “fig. S8 response (normalized)” value (MRGPRX4 WT (S83); 1.11111e-5 M) was 45.6445 and 43.516 and 42.3335 and 43.5131 and 43.9504 and 44.6064 and 52.9388 and 53.9116, the “fig. S8 response (normalized)” value (MRGPRX4 WT (S83); 3.33333e-5 M) was 61.017 and 69.0579 and 61.4432 and 62.3178 and 54.6647 and 48.561 and 41.5079 and the “fig. S8 response (normalized)” value (MRGPRX4 WT (S83); 0.0001 M) was 60.544 and 75.4434 and 62.6724 and 56.414 and 74.7813 and 68.4402 and 77.9895 and 57.3166. The “Potency at S83- vs L83-MRGPRX4” value (MRGPRX4 WT (S83); calcium mobilization, compared with S83L (A17)) was “the L83 allele, as previously reported, exhibited greater potency and efficacy”.
